Results on nine compounds are retold here after patent US5709816A, “Singlet oxygen quenchers and external compositions containing the same” (Kao Corporation, priority 1899, dated 1998).

Experiment [1] in a line: Quenching rate constant of singlet oxygen (Rose Bengal photosensitization, Stern-Volmer method). Format: biochemical. As to conditions: for weakening of the 1,270 nm singlet oxygen emission peak with increasing quencher concentration: 50 μM ethanol solution of Rose Bengal, 490-590 nm irradiation. The source says:
Method for measuring the quenching rate constant of singlet oxygen:
The apparatus used for measuring singlet oxygen included the following parts.
(1) Light source: Xenon lamp (150 W) (Atago Bussan K.K.)
(2) Filters on the excitation side: Water filter (optical path: 50 mm), Color glass filters (HA-15, HA-30, G-533, manufactured by Hoya K.K.)
(3) Sample: Square quartz cell (2×10×50 mm)
(4) Filters on the detection side: Color glass filter (IR-85, manufactured by Hoya K.K.), Interference filter (Nippon Shinku-Kogaku K.K.)
(5) Spectrometer and detector: Spectrometer (HR-320, Jovin Yvon Co.), Germanium (Ge) detector (EO-817L, a type using liquid nitrogen as a coolant, North coast Scientic Corporation)
(6) Amplifier: Light chopper (5584, NF Co.), Frequency filter (E-3201B, NF Co.), Super low noise amplifier (SA-200F3, NF Co.), Digital storage oscilloscope (2431L, SONY Tektronix Co.)
(7) Recording section: Personal computer (PC-9801 BA, NEC Corporation), GP-IB interface
(8) Oxygen concentration control unit: High-pressure oxygen cylinder
Using this apparatus, light was irradiated onto a system which is known to produce singlet oxygen through photochemical sensitization. The wavelength of the light was within an appropriate absorption range of the photosensitizer employed. weak emission in the near infrared region, which is specific to singlet oxygen, was measured for its intensity I. Subsequently, the emission obtained when a test substance was added to the same system was measured. From the decrease in emission intensity I, the quenching rate constant of singlet oxygen of the test substance could be measured in accordance with the Stern-Volmer method. However, since some substances react with the photochemical sensitization system to cause errors in the measurements, the method described by R. H. Young et al., Photochem. Photobiol., vol. 17, p. 233 (1973) was applied to correct this contribution quenching.
A 50 μM ethanol solution of Rose Bengal in a 400 μl square quartz cell was used as a test substance.
First, the light within 490-590 nm, which is appropriate for the maximum absorption wavelength of Rose Bengal, was irradiated onto the cell containing the test substance.
Similarly, another system was subjected to measurement in which a typical singlet oxygen quencher, β-carotene, sodium azide,or 1,4-diazabicyclo[2.2.2]octane, had been added.
Measurement of the quenching rate constant of singlet oxygen: An ethanol solution of each of compounds obtained in the above-described Synthesis Examples and N-phenyldiethanolamine (compound (36)), with Rose Bengal, as a conventional photosensitizer, was used for the measurement of the quenching rate constants of singlet oxygen.
First, emission intensity I of a mixture solution containing 50 μM of Rose Bengal and the above compounds were measured under saturated air conditions. The ratio IOair /Iair was calculated, wherein Iair represents the emission intensity measured for a solution with a test substance at a concentration of Cq (Iair), and Oair represents the emission intensity measured for a solution without test substance. Next, under saturated oxygen conditions, emission intensity was measured for a solution with a test substance at the same concentration Cq (I302). Using these emission intensities, the correction term Fair was obtained in accordance with the following equation.
Interference attributed to the test substance with respect to the photosensitization reaction system was corrected by multiplying IOair /Iair by Fair.
Using the following equation:
(IOair /Iair)'=1+kq ·.tau.·Cq

For experiment [2], the system named is skin of white guinea pigs. In words: Inhibition of erythema formation (UV-A/UV-B irradiation). Type of experiment: in vivo. As to conditions: Cavia porcellus, light or radiation study, topical; 5 wt. % in ethanol; UV-A/UV-B 40 J/cm^2; determined after 1 day and 2 days; read-out: Erythema inhibition rate. The source says: Inhibition of erythema formation
The hair of white guinea pigs (8 weeks old, female) hair was removed by shaving, and an ethanol solution containing a test substance (5 wt. %) was applied to the shaved part of each animal. A mixture of UV-A/UV-B (40 J/cm^2, measured at 365 nm using a UV-radiometer UVR-305/365-D, Torex Co.) was irradiated onto the back of each guinea pig using a solar simulator Model 1600 (Solar Light Co.). After 1 day and 2 days of irradiation, the erythema formation was visually determined by the standards of the Japanese Dermatological Association to obtain erythema inhibition ratios.

The test system of experiment [3] is sunburn cells in skin of ICR/HR mice. In words: Inhibition of sunburn cell formation (UV-B irradiation). Type of experiment: in vivo. As to conditions: 1 wt. % in ethanol, UV-B 100 mJ/cm^2, 24 hours later; for inhibition in vivo at 1 %: Mus musculus, light or radiation study, topical, read-out: Inhibition ratio regarding sunburn cell formation. The source says:
Inhibition of sunburn cell formation
Ethanol solution of a test substance (1 wt. %) was applied onto the skin of ICR/HR mice. UV-B (100 mJ/cm^2) was irradiated onto the skin (health lamp SE20/SLE, Toshiba). Twenty-four hours later, the skin was biopsied and stained using hematoxylin & eosin, after which the number of sunburn cells were counted under microscope.

In experiment [4] the test system is skin of colored guinea pigs. In words: Inhibition of delayed darkening (UV-A/UV-B irradiation). Type of experiment: in vivo. As to conditions: 7 wt. % in ethanol; UV-A/UV-B 50 J/cm^2; 14 days after irradiation; color difference meter. The procedure:
Inhibition of delayed darkening
The hair of colored guinea pigs (8 week old, female) hair was removed, and an ethanol solution containing a test substance (7 wt. %) was applied to the skin. A mixture of UV- A/UV-B rays (50 J/cm^2, measured at 365 nm using a UV-radiometer UVR-305/365-D, Torex Co.) was irradiated onto the back of each guinea pig using a solar simulator. Fourteen days after irradiation, delayed darkening inhibition ratios were measured using a color difference meter (Model 1001P. Nippon Kogyo Co., Ltd.).

The subject of experiment [5] is dopachrome formation from dopa. As to the kind of experiment: Inhibition of immediate pigment darkening (dopachrome formation from dopa, porphyrin + UV). Type of experiment: biochemical. As to conditions: 0.5 wt. % in ethanol; dopa 1 mM, porphyrin 5 mM; UV-A/UV-B 3 J/cm^2; absorption at 475 nm. The procedure: Inhibition of immediate pigment darkening
An ethanol solution containing a test substance (0.5 wt. %) was added to a mixture of dopa (1 mM) and porphyrin (5 mM). A mixture of UV-A/UV-B (3 J/cm^2, measured at 365 nm) was irradiated onto the resultant mixture using a solar simulator. The amount of dopachrome formed by irradiation was determined by measuring absorption at 475 nm.

For another experiment, the system named is collagen. As to the kind of experiment: Inhibition of protein denaturation (collagen crosslinking, porphyrin + UV). Type of experiment: biochemical. Conditions: 0.1 wt. % in ethanol; collagen 0.5 mg/ml, porphyrin 100 mM; UV-A/UV-B 3 J/cm^2; SDS-PAGE. As to the method: Inhibition of protein denaturation
An ethanol solution containing a test substance (0.1 wt. %) was added to a mixture of collagen (0.5 mg/ml) and 2 porphyrin (100 mM). A mixture of UV-A/UV-B (3 J/cm^2, measured at 365 nm) was irradiated onto the resultant mixture using a solar simulator. The irradiated mixture was applied to SDS-PAGE electrophoresis, and collagen crosslinking inhibition ratios were measured.

Experiment [6] deals with cultured human fibroblasts. In words: Inhibition of lipid peroxide formation in cultured human fibroblasts (TBA method). Type of experiment: cell-based. Conditions: 0.01 wt. % in ethanol, 100 mM porphyrin; for inhibition at 0.01 wt%: Homo sapiens, Fibroblast, light or radiation study, UV-A/UV-B 1 J/cm^2, read-out: Inhibition ratio regarding lipid peroxide formation. As to the method:
Inhibition of lipid peroxide formation
Cultured human fibroblasts were combined with 100 mM porphyrin and a test substance (0.01 wt. %, in ethanol). A mixture of UV-A/UV-B rays (1 J/cm^2, measurements performed at 365 nm) was irradiated onto the resultant cell culture using a solar simulator. The fibroblasts were collected after the trypsin treatment, then extracted hydrophobic substances using acetone. The extracted substances were dried under nitrogen to prepare cellular lipid samples. A TBA method was used to measure lipid peroxides in cells and inhibition ratio by a test substance.

Experiment [7] concerns E. coli vector pUC119 DNA. Format: biochemical. Conditions: 0.01 wt. % in ethanol; 100 mM porphyrin; UV-A/UV-B 3 J/cm^2; agarose gel electrophoresis. The procedure: To a mixture of […] E. coli vector pUC119 DNA and 100 mM porphyrin, an ethanol solution containing a test substance (0.01 wt. %) was added. A mixture of UV-A/UV-B (3 J/cm^2, measured at 365 nm) was irradiated onto the resultant DNA mixture using a solar simulator. A 2.5-fold amount of ethanol and a 0.1-fold amount of 5M sodium acetate were added and the DNA was precipitated. The DNA pellet was dissolved in a TE buffer, and analyzed through agarose gel electrophoresis. Inhibition of DNA single strand breaks formation was measured.

A further experiment deals with skin of ICR/HR mice. As to the kind of experiment: Inhibition of wrinkle formation in the skin of mice (UV-B, 16 weeks). Conditions: 1 wt. % in ethanol, 1 MED UV-B five times per week over sixteen weeks; for inhibition in vivo at 1 %: Mus musculus, topical, 2688 h. Format: in vivo, ICR/HR mouse. The source says: Inhibition of wrinkle formation in the skin of mice
To the back of each ICR/HR mouse (female, 6 weeks old), an ethanol solution containing a test substance (1 wt. %) was applied. One (1) MED of UV-B was irradiated thereto using a health lamp SL20-SLE (Toshiba). Irradiation was repeated five times per week over sixteen weeks. Wrinkle formation was visually scored using the following five rankings.
1: Mild and questionable wrinkles are observed
2: Mild but clear and definite wrinkles are observed
3: Moderate wrinkles are observed
4: Severe wrinkles are observed
Using the above rankings, wrinkle formations were scored and the inhibition ratios were determined by the division by the blank score.

With `C1CN2CCN1CC2` [1,4-diazabicyclo[2.2.2]octane, reference compound], the “weakening of the 1,270 nm singlet oxygen emission peak with increasing quencher concentration” value in [1] is “the peak at 1,270 nm weakened”.

As to `COC(=O)C=Cc1ccc(OC)cc1` [Comparative compound (1), Methyl p-methoxycinnamate, reference compound], the inhibition in vivo at 5 % in experiment [2] is 31%. The inhibition in vivo at 1 % in experiment [3] is 37%. For the same compound, the ΔΔL value in experiment [4] is given as 0.9.

In the case of `[Cl][Cd][Cl]` [Comparative compound (2), Cadmium chloride, reference compound], the “Inhibition ratio regarding sunburn cell formation” value in experiment [3] was found to be 67%.

In turn, `Oc1ccc(O)cc1` [Comparative compound (3), Hydroquinone, reference compound] gave a ΔΔL value in experiment [4] of 0.7.

With `[N-]=[N+]=[N-].[Na+]` [Comparative compound (4), Sodium azide, reference compound], in experiment [1], the “weakening of the 1,270 nm singlet oxygen emission peak with increasing quencher concentration” value is “the peak at 1,270 nm weakened”. In experiment [5], the “Inhibition ratio regarding immediate blackening” value is 48%. Besides, the “Protein denaturation inhibition ratio” value with collagen was 45%. Moreover, the “Inhibition ratio regarding lipid peroxide formation” value in [6] (UV-A/UV-B 1 J/cm^2) is reported as 37. For the same compound, the “Prevention of DNA damage” value in [7] came out at 53%. Also, the “Inhibition of wrinkle formation” value in the experiment on skin of ICR/HR mice was 28%.

On to `O=C1O[C@H]([C@@H](O)CO)C(O)=C1O` [Comparative compound (5), Ascorbic acid, reference compound], for which, in experiment [5], the “Inhibition ratio regarding immediate blackening” value worked out at 42%. Further, in experiment [6], the inhibition at 0.01 wt% came out at 43%. Besides, in [7], the “Prevention of DNA damage” value is recorded as 21%. This compound also had an inhibition in vivo at 1 % in the experiment with skin of ICR/HR mice of 11%.

On to `Cc1c(C)c2c(c(C)c1O)CCC(C)(CCCC(C)CCCC(C)CCCC(C)C)O2` (stereo not drawn) [Comparative compound (6), α-Tocopherol, reference compound], for which, in the experiment on collagen, the “Protein denaturation inhibition ratio” value was 30%. Moreover, in experiment [6], the inhibition at 0.01 wt% worked out at 42%. Also, the “Prevention of DNA damage” value in experiment [7] stood at 34%. In the experiment on skin of ICR/HR mice, the inhibition in vivo at 1 % came to 34%.

For the compound `OCCN(CCO)c1ccccc1` [Compound (36), N-phenyldiethanolamine], the “Extinction rate constant of singlet oxygen” value in [1] (kq, ethanol solution, 50 μM Rose Bengal, singlet oxygen lifetime taken as 10 μs) is 5.8e+07 M⁻¹ s⁻¹. Further, the inhibition in vivo at 5 % in [2] stood at 48%. The inhibition in vivo at 1 % in experiment [3] was found to be 62%. In addition, the ΔΔL value in experiment [4] worked out at 1.2. For the same compound, in [5], the “Inhibition ratio regarding immediate blackening” value amounted to 64%. The “Protein denaturation inhibition ratio” value in the experiment on collagen is listed as 69%. Further, in experiment [6], the inhibition at 0.01 wt% stood at 46%. For the same compound, the “Prevention of DNA damage” value in [7] was 58%.

For the compound `CC1=C(/C=C/C(C)=C/C=C/C(C)=C/C=C/C=C(C)/C=C/C=C(C)/C=C/C2=C(C)CCCC2(C)C)C(C)(C)CCC1` [β-carotene, reference compound], the “weakening of the 1,270 nm singlet oxygen emission peak with increasing quencher concentration” value in experiment [1] is given as “the peak at 1,270 nm weakened”.
